According to US11266170B2, “Sweetener and flavor compositions, methods of making and methods of use thereof” (EPC Natural Products Co., Ltd., priority 2018, dated 2022):
Blank lines part the entries; values can stand above or below the compound they belong to.

Key:
[1] = Kinetics of reaction of Phe with Reb-A, Gluc, Xyl, Suc in dependence of pH-conditions, HPLC/MS (Example 55); type: physicochemical
Method: Quantitative evaluation was performed using external standardization.
Kinetics of Reaction in dependence of pH-conditions

3 persons = experiment: Sensory analysis of odor/smell, color and taste of reacted samples (Examples 55-62); type: in vivo; details: Example 57, after reaction; 10 ml KH2PO4, pH 7.8, 2.5 h, 120 °C
Method: The reaction partners were dissolved in water and then warmed glycerin (60° C.) was added. […]
The taste test was performed as in Example 38.
All samples were assessed at 22° C. after the Maillard reaction was stopped by placing the sealed vials in an ice bath. After 20 minutes in the ice bath the sealed vials were put in a water bath set to 22° C.
The odor/smell was assessed independently by 3 persons; the final description was agreed after discussion. […] The taste was assessed independently by 3 persons either in the original samples or after appropriate dilution to achieve relevant concentrations of sugars and steviol-glycosides (i.e. 5-9% SE); the final description was agreed after discussion.

panel of four people = experiment: Sensory test of Maillard reaction series in glycerol, buffer or dry conditions (Examples 50, 52); type: in vivo; set-up: key to Intensity of Smell: “+” for slight; “++” for moderate; “+++” for very strong
Method: The reaction partner (amino acid, carbohydrate source) were dissolved/suspended in the reaction solvent and transferred into a glass beaker filled with sand pre-heated for at least 30 minutes at the reaction temperature in a drying oven. After the planned reaction time, the vials were transferred into ice water. After cooling to room temperature, sensory analysis and analytical characterization was performed.
All tests were performed with negative controls (only reaction solvent, reaction solvent and amino acid, reaction solvent and carbohydrate).
Another series of experiments was performed in […] filled with 10 ml of reaction solvent. The reaction partner (amino acid, carbohydrate source) were dissolved/suspended in the reaction solvent and reflux heated for the time given on heating plates. After the planned reaction time, the flasks were transferred into ice water. After cooling to room temperature, sensory analysis and analytical characterization was performed.
Another series of experiments was performed in 20 ml sealed Pyrex vials. The reaction partner (amino acid, carbohydrate source) were finely grinded and mixed, then transferred in the Pyrex vial. A small volume of water was added and the reaction initiated in a drying oven. After the planned reaction time, the vials were transferred into ice water. After cooling to room temperature, sensory analysis and analytical characterization was performed.
For evaluation of the taste profile, the samples were tested by a panel of four people. 1 trained taster tasted independently the samples first. The taster was asked to describe the taste profile and score 0-5 according to the increasing sugar likeness, bitterness, aftertaste and lingering taste profiles. The first taster was allowed to re-taste, and then make notes for the sensory attributes perceived. Afterwards, another 3 tasters tasted and the attributes were noted and discussed openly to find a suitable description. In case that more than 1 taster disagreed with the results, the tasting was repeated. In some sensory test results (above), the taste rating was expressed by “+”, which means the intensity of the factors is shown by three levels. “+” for slight, “++” for moderate and “+++” for very strong.

[2] = Sensory evaluation of GSGs and SGs, thaumatin, NHDC and combinations in water (Example 255); details: combinations of EPCalin and NHDC in water, concentrations as in the sample name
Method: 4.5 ppm Thaumatin (equivalent to 10 ppm EPCalin) was dissolved in water. Increasing amounts of NHDC (1-5 ppm) were added to the solution and the sensory properties were evaluated.
50 ppm (GSGs and SGs) were dissolved in water. Increasing amounts of NHDC (1-5 ppm) were added to the solution and the sensory properties were evaluated.
50 ppm (GSGs and SGs) and 4.5 ppm Thaumatin (equivalent to 10 ppm EPCalin) were dissolved in water. Increasing amounts of NHDC (1-5 ppm) were added to the solution and the sensory properties were evaluated.

[3] = Assay to test reducing power (iron-III reduction), Example 64; type: biochemical; details: 100° C., 0-5.0 h, pH 7.8; compared with glucose or xylose
[4] = Assay to test DPPH radical-scavenging activity, Example 65; type: biochemical; details: 100° C., 0-5.0 h, pH 7.8; compared with glucose or xylose
Method: 1 mg 1,1-Diphenyl-2-picrylhydrazyl radical (DPPH)/ml ethanol, dilution to assay concentration were prepared in ethanol (40 μg/mL); Calibration samples were prepared with Ascorbic acid in a concentration of 0-10 μg/mL; as a negative control sample, water was used.
Samples in aqueous solution were used as such or diluted with water.
A 0.1 ml sample (or calibration standard) was mixed with 3.9 ml solution of DPPH (100 μMolar) and reacted while protected from light at room temperature for 30 min. Absorbance was determined at 517 nm against ethanol.
10 mM of amino acid and/or 10 mM sugar were dissolved in 10 ml 0.1 mM KH2PO4-buffer, pH=7.8.
The samples were kept at 100° C. in sealed glass vials (Pyrex 15 ml with screw caps) for 0 (before reaction), 2.5 or 5.0 hours. Thereafter the samples were transferred to an ice water bath and cooled down to room temperature. These samples were diluted 1:10 and used for the test assay for anti-oxidant potential.

[5] = reaction of Phe and Gluc, pH = 5.5
[6] = reaction of Phe and Gluc, pH = 7.0
[7] = reaction of Phe and Gluc, pH = 8.5
[8] = reaction of Phe and Reb-A, pH = 5.5
[9] = reaction of Phe and Reb-A, pH = 7.0
[10] = reaction of Phe and Reb-A, pH = 8.5
[11] = reaction of Phe and Suc, pH = 5.5
[12] = reaction of Phe and Suc, pH = 7.0
[13] = reaction of Phe and Suc, pH = 8.5
[14] = Table 52.2, 1 ml water + 9 ml Glycerin, 0.67 h, 100° C. (Table 50.2)
[15] = Table 52.5, 1 ml water + 9 ml Glycerin, 2.0 h, 120° C. (Table 50.5)
[16] = Table 52.3, 1 ml water + 9 ml Glycerin, 0.67 h, 100° C. (Table 50.3)
[17] = Table 52.6, Glycerin, 10 ml, 100° C., 40 min (Table 50.6)
[18] = Table 52.7, Glycerin, 10 ml, 1 h, 120° C. (Table 50.7)
[19] = Table 52.1, 1 ml water + 9 ml Glycerin, 1 h, 100° C. (Table 50.1)
[20] = reaction of Phe and Reb-A, pH = 5.5, Reb-B from degraded Reb-A, MRIs from degraded Phe
[21] = reaction of Phe and Reb-A, pH = 7.0, Reb-B from degraded Reb-A, MRIs from degraded Phe
[22] = reaction of Phe and Reb-A, pH = 8.5, Reb-B from degraded Reb-A, MRIs from degraded Phe

Compound: NC(Cc1ccccc1)C(=O)O (single isomer, unassigned) [Phe]
% degradation [1, 5]: 2.26%
% degradation [1, 6]: 2.18%
% degradation [1, 7]: 4.24%
% degradation [1, 8]: 1.97%
% degradation [1, 9]: 9.07%
% degradation [1, 10]: 12.8%
% degradation [1, 11]: 5.50%
% degradation [1, 12]: 5.19%
% degradation [1, 13]: 5.36%
% degradation ([1]; reaction of Phe and Xyl, pH = 5.5): 4.24%
% degradation ([1]; reaction of Phe and Xyl, pH = 7.0): 4.80%
% degradation ([1]; reaction of Phe and Xyl, pH = 8.5): 9.89%
Smell (3 persons): Caramel, burnt
Taste (3 persons): sweet

Compound: C[C@H](N)C(=O)O [0.1 mMol Ala]
Smell (panel of four people; [14]): Agar
Taste (panel of four people; [14]): sweet

Compound: O=C[C@H](O)[C@H]1OC(=O)[C@@H](O)[C@H]1O [0.1 mMol GlucLac]
Intensity of Smell (panel of four people; [15]): +++
Smell (panel of four people; [15]): Burnt sugar
Taste (panel of four people; [15]): Bitter

Compound: NCCCC[C@H](N)C(=O)O [0.1 mMol Lys]
Smell (panel of four people; [16]): Popcorn
Taste (panel of four people; [16]): Sweet

Compound: N[C@@H](Cc1ccccc1)C(=O)O [0.1 mMol Phe]
Taste (panel of four people; [14]): sweet
Intensity of Smell (panel of four people; [15]): +
Smell (panel of four people; [15]): Caramel, burnt
Taste (panel of four people; [15]): sweet

Compound: C=C1C[C@@]23CC[C@H]4[C@@](C)(CCC[C@@]4(C)C(=O)O[C@@H]4O[C@H](CO)[C@@H](O)[C@H](O)[C@H]4O)[C@@H]2CC[C@]1(O[C@@H]1O[C@H](CO)[C@@H](O)[C@H](O[C@@H]2O[C@H](CO)[C@@H](O)[C@H](O)[C@H]2O)[C@H]1O[C@@H]1O[C@H](CO)[C@@H](O)[C@H](O)[C@H]1O)C3 [0.05 mMol Reb-A]
Smell (panel of four people; [14]): neutral/unpleasant
Taste (panel of four people; [14]): sweet

Compound: N[C@@H](Cc1ccccc1)C(=O)O [3.3 mMol Phe]
Smell (panel of four people; Table 52.6, Glycerin, 10 ml, 100° C., 5 min (Table 50.6)): Slightly bloomy
Smell (panel of four people; Table 52.6, Glycerin, 10 ml, 100° C., 10 min (Table 50.6)): flowery/bloomy
Smell (panel of four people; Table 52.6, Glycerin, 10 ml, 100° C., 20 min (Table 50.6)): flowery/bloomy
Smell (panel of four people; [17]): flowery/bloomy
Smell (panel of four people; [18]): flowery/bloomy

Compound: OC[C@H]1OC(O)[C@H](O)[C@@H](O)[C@@H]1O (stereo partly shown) [10 mMol Glu]
Smell (panel of four people; [17]): Slightly Caramel
Smell (panel of four people; [18]): Slightly Caramel

Compound: COc1ccc(CCC(=O)c2c(O)cc(O[C@@H]3O[C@H](CO)[C@@H](O)[C@H](O)[C@H]3O[C@@H]3O[C@@H](C)[C@H](O)[C@@H](O)[C@H]3O)cc2O)cc1O [10 ppm NHDC]
Sensory evaluation [2]: Sweet, steep onset of sweetness, no lingering

Compound: N[C@@H](CCC(=O)O)C(=O)O [167 mMol Glu]
Smell (panel of four people; [19]): caramel
Taste (panel of four people; [19]): Sweet

Compound: OC[C@H]1OC(O)[C@H](O)[C@@H](O)[C@@H]1O (stereo partly shown) [Glu]
% degradation [1, 5]: 3.65%
% degradation [1, 6]: 4.6%
% degradation [1, 7]: 7.62%
Smell (3 persons): Burnt sugar
Taste (3 persons): Sweet/bitter

% formation ([1]; reaction of Phe and Suc, pH = 5.5, from degraded Phe): <0.10%
% formation ([1]; reaction of Phe and Suc, pH = 7.0, from degraded Phe): 0.54%
% formation ([1]; reaction of Phe and Suc, pH = 8.5, from degraded Phe): 0.84%
Compound: O=C(O)[C@H](Cc1ccccc1)NCC(=O)[C@@H](O)[C@H](O)[C@H](O)CO [MRI (Phe-Glu)]

Compound: C=C1CC23CC[C@H]4[C@@](C)(CCC[C@@]4(C)C(=O)OC4O[C@H](C(=O)N[C@H](Cc5ccccc5)C(=O)O)[C@@H](O)[C@H](O)[C@H]4O)[C@@H]2CC(O[C@@H]2O[C@H](CO)[C@@H](O)C(O[C@@H]4O[C@H](CO)[C@@H](O)[C@H](O)[C@H]4O)[C@H]2O[C@@H]2O[C@H](CO)[C@@H](O)[C@H](O)[C@H]2O)C1C3 (stereo partly drawn) [MRI (Phe-Reb-A)]
% formation [1, 20]: 10.4%
% formation [1, 21]: 11.3%
% formation [1, 22]: 14.7%

Compound: N[C@@H](Cc1ccccc1)C(=O)O [Phe 60 mMol]
Smell (panel of four people; [19]): flowery/bloomy-caramel
Taste (panel of four people; [19]): Sweet

Compound: C=C1C[C@@]23CC[C@H]4[C@@](C)(CCC[C@@]4(C)C(=O)O[C@@H]4O[C@H](CO)[C@@H](O)[C@H](O)[C@H]4O)[C@@H]2CC[C@]1(O[C@@H]1O[C@H](CO)[C@@H](O)[C@H](O[C@@H]2O[C@H](CO)[C@@H](O)[C@H](O)[C@H]2O)[C@H]1O[C@@H]1O[C@H](CO)[C@@H](O)[C@H](O)[C@H]1O)C3 [Reb-A, Rebaudioside A, reference compound]
active iron-III reduction (anti-oxidant properties) [3]: substantial anti-oxidant properties
% degradation [1, 8]: 8.25%
% degradation [1, 9]: 10.1%
% degradation [1, 10]: 12.6%
radical scavenging properties (anti-oxidant properties) [4]: substantial anti-oxidant properties

Compound: OC[C@H]1O[C@@](CO)(O[C@H]2O[C@H](CO)[C@@H](O)[C@H](O)[C@H]2O)[C@@H](O)[C@@H]1O [Suc]
% degradation [1, 11]: 3.67%
% degradation [1, 12]: 5.69%
% degradation [1, 13]: 9.81%

% formation [1, 20]: 23.1%
% formation [1, 21]: 22.7%
% formation [1, 22]: 19.1%
Compound: rebaudioside B [RB]
